Measurements from US20100130549A1, “PSYCHOTROPIC COMPOUNDS, COMPOSITIONS AND METHODS OF USE” (priority 2007, published 2010).

Columns and labels:
BALB/c mice [1] = test: Open field test
BALB/c mice [2] = test: Rotor rod test (motor activity); type: in vivo; details: 10 mg/kg p.o., 90 min after administration; vs controls
Protocol: The test was performed 90 min after oral administration of the compounds. […] The rotor rod test involves placing the mouse on an elevated rotating bar. In this test, the mouse is placed on the bar such that it is facing the direction opposite to the rotation of the rod. The time lag to fall is determined.

ICR male mice = test: Subchronic ip administration (toxicity); type: in vivo
Description: […]. Except for this local irritation no other toxicity was noted.
[…]. […] Except of these local irritations no other toxicity was noted.

BALBc male mice = test: Hot plate test; type: in vivo; details: 10 mg/kg orally (sertraline equimolar); vs vehicle treated control
Description: The hot-plate test is widely used to measure pain sensation. The latency in response to heat of mice and rats feet is based on the method described by Eddy et al., Synthetic analgesics. II. […] The method is based on placing an animal on heated (52-56 C) surface and measuring the time to response (raising paw, licking of the paw, jumping or running.
The animals were followed for 6 hr.

[3] = 10 and 30 mg/kg ip ×3/week for 2 weeks, sertraline equimolar
[4] = 10 mg/kg (equimolar) ip 1 hr prior, p<0.001 vs controls

Row | SMILES | sedative effect accompanying the anxiolytic activity (BALB/c mice [1]; orally 90 min prior) | muscle strength and basic motor activity (BALB/c mice [2]) | body weight gain versus controls (ICR male mice; [3]) | chemistry blood picture (ICR male mice; [3]) | histopathology of heart, spleen, liver and kidney (ICR male mice; high dose of 30 mg/kg ip, subchronic, capsule of the abdominal organs) | latency to heat sensation (BALBc male mice) | total time spent in the center (areas 2+3) (BALB/c mice [1]; 10 mg/kg (equimolar) ip 1 hr prior) | frequency to the center (BALB/c mice [1]; 10 mg/kg (equimolar) ip 1 hr prior, controls 1.23) | distance moved (BALB/c mice [1]; [4]) | velocity (BALB/c mice [1]; [4])
1 | OCCCC#Cc1cc2c(cc1OC[C@@H]1CNCC[C@H]1c1ccc(F)cc1)OCO2 [If] | not accompanied by a sedative effect |  |  |  |  |  |  |  |  | 
2 | CN[C@H]1CC[C@@H](c2ccc(Cl)c(Cl)c2)c2ccccc21 [sertraline, reference compound] |  | did not modify | no difference | did not show a significant change | minimal to mild irritation | significantly increase | significantly increase | 1.27 | significantly increase | significantly increase
